In ChEMBL document CHEMBL1201862, “PubChem BioAssay data set” (2004):
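1) Cells in 96-well plates. 2) Compound, 48 h, 5 concentrations. 3) Linear interpolation between surrounding doses. 4) Unreached endpoint = highest concentration. GI50 is the concentration that inhibits growth by half.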 Activity calls are given as the source filed them. Rule as the data show it: active = GI50 up to about 1.1 µM and inactive = higher.

Tests used:
Experiment in all cases: NCI-60 cell line screen, 48 h
SK-MEL-28 = test system: SK-MEL-28
NCI-H226 = test system: NCI-H226
PC-3 = test system: PC-3
OVCAR-8 = test system: OVCAR-8
HOP-62 = test system: HOP-62
OVCAR-5 = test system: OVCAR-5
HT-29 = test system: HT-29
UO-31 = test system: UO-31
Malme-3M = test system: Malme-3M
SW-620 = test system: SW-620
A498 = test system: A498
CCRF-CEM = test system: CCRF-CEM
786-0 = test system: 786-0
MCF7 = test system: MCF7
LOX IMVI = test system: LOX IMVI
U-251 = test system: U-251
T47D = test system: T47D
NCI-H23 = test system: NCI-H23
DU-145 = test system: DU-145
SF-539 = test system: SF-539

Measured: GI50

COc1c(-c2ccc(O)c(O)c2)oc2c(O)c(O)cc(O)c2c1=O
inactive: SK-MEL-28 > 100 µM | NCI-H226 > 100 µM | PC-3 > 100 µM | OVCAR-8 > 100 µM | HOP-62 26.7 µM | OVCAR-5 > 100 µM | HT-29 20 µM | UO-31 > 100 µM | Malme-3M > 100 µM | SW-620 22.5 µM | A498 > 100 µM | CCRF-CEM 29.2 µM | 786-0 67.5 µM | MCF7 28.2 µM | LOX IMVI 15.2 µM | U-251 34.8 µM | T47D 67 µM | NCI-H23 60.3 µM | DU-145 > 100 µM | SF-539 > 100 µM

NC(=O)c1ncn2c(=O)n(CCl)nnc12
inactive: SK-MEL-28 > 100 µM | NCI-H226 > 100 µM | PC-3 > 100 µM | OVCAR-8 97.1 µM | HOP-62 > 100 µM | OVCAR-5 > 100 µM | HT-29 43.2 µM | UO-31 > 100 µM | Malme-3M > 100 µM | SW-620 42 µM | A498 > 100 µM | CCRF-CEM 22.4 µM | 786-0 85.9 µM | MCF7 49.3 µM | LOX IMVI 15.8 µM | U-251 > 100 µM | T47D 94.2 µM | NCI-H23 > 100 µM | DU-145 > 100 µM | SF-539 72.8 µM

C[N+](C)(C)CCCCCc1c2nc(c(CCCCC[N+](C)(C)C)c3ccc([nH]3)c(CCCCC[N+](C)(C)C)c3nc(c(CCCCC[N+](C)(C)C)c4ccc1[nH]4)C=C3)C=C2
inactive: SK-MEL-28 > 100 µM | NCI-H226 > 100 µM | PC-3 > 100 µM | OVCAR-8 > 100 µM | HOP-62 > 100 µM | OVCAR-5 > 100 µM | HT-29 > 100 µM | UO-31 > 100 µM | Malme-3M > 100 µM | SW-620 > 100 µM | A498 > 100 µM | CCRF-CEM > 100 µM | 786-0 > 100 µM | MCF7 > 100 µM | LOX IMVI > 100 µM | U-251 > 100 µM | T47D > 100 µM | NCI-H23 > 100 µM | DU-145 > 100 µM | SF-539 > 100 µM

CC1=C2C(=O)[C@H]3[C@@H](CC=C4C[C@@H](O)CC[C@@]43C)[C@@H]2CC[C@]12O[C@@H]1C[C@H](C)CN[C@H]1[C@H]2C [JERVINE]
inactive: SK-MEL-28 > 49.3 µM | NCI-H226 > 43.8 µM | PC-3 > 100 µM | OVCAR-8 > 47.1 µM | HOP-62 > 39.5 µM | OVCAR-5 > 100 µM | HT-29 > 55.2 µM | UO-31 > 40.1 µM | Malme-3M > 50.4 µM | SW-620 > 49.4 µM | A498 > 41.2 µM | CCRF-CEM > 63.4 µM | 786-0 > 41.9 µM | MCF7 > 100 µM | LOX IMVI > 41.1 µM | U-251 > 41.4 µM | T47D > 100 µM | NCI-H23 > 42.3 µM | DU-145 > 100 µM | SF-539 > 47.9 µM
